How the values were obtained:
Assay in all cases: KINOMEscan competition binding
Conditions in all cases: compound 10.0 µM
AKT1 (human) = AKT1 (human) (UniProt P31749)
CAMK1D (human) = CAMK1D (human) (UniProt Q8IU85)
CAMK2A (human) = CAMK2A (human) (UniProt Q9UQM7)
DDR2 (human) = DDR2 (human) (UniProt Q16832)
[1] = system: EGFR (human), P00533 [A750P; 747-749 del]
EIF2AK2 (human) = EIF2AK2 (human) (UniProt P19525)
EPHA1 (human) = EPHA1 (human) (UniProt P21709)
EPHA8 (human) = EPHA8 (human) (UniProt P29322)
ERBB4 (human) = ERBB4 (human) (UniProt Q15303)
FER (human) = FER (human) (UniProt P16591)
FRK (human) = FRK (human) (UniProt P42685)
GAK (human) = GAK (human) (UniProt O14976)
ITK (human) = ITK (human) (UniProt Q08881)
KIT (human) = KIT (human) (UniProt P10721)
LATS1 (human) = LATS1 (human) (UniProt O95835)
LATS2 (human) = LATS2 (human) (UniProt Q9NRM7)
MAP2K6 (human) = MAP2K6 (human) (UniProt P52564)
MAPK11 (human) = MAPK11 (human) (UniProt Q15759)
MAPK13 (human) = MAPK13 (human) (UniProt O15264)
MAPK14 (human) = MAPK14 (human) (UniProt Q16539)
MERTK (human) = MERTK (human) (UniProt Q12866)
MUSK (human) = MUSK (human) (UniProt O15146)
MYLK (human) = MYLK (human) (UniProt Q15746)
NEK1 (human) = NEK1 (human) (UniProt Q96PY6)
NEK6 (human) = NEK6 (human) (UniProt Q9HC98)
PIP5K1A (human) = PIP5K1A (human) (UniProt Q99755)
PKN2 (human) = PKN2 (human) (UniProt Q16513)
PRKCH (human) = PRKCH (human) (UniProt P24723)
PRKG1 (human) = PRKG1 (human) (UniProt Q13976)
STK16 (human) = STK16 (human) (UniProt O75716)
STK3 (human) = STK3 (human) (UniProt Q13188)
TGFBR1 (human) = TGFBR1 (human) (UniProt P36897)
TIE1 (human) = TIE1 (human) (UniProt P35590)
TNK2 (human) = TNK2 (human) (UniProt Q07912)
ULK1 (human) = ULK1 (human) (UniProt O75385)

Sequence of ERBB4 (human) (Q15303 whole entry, looked up): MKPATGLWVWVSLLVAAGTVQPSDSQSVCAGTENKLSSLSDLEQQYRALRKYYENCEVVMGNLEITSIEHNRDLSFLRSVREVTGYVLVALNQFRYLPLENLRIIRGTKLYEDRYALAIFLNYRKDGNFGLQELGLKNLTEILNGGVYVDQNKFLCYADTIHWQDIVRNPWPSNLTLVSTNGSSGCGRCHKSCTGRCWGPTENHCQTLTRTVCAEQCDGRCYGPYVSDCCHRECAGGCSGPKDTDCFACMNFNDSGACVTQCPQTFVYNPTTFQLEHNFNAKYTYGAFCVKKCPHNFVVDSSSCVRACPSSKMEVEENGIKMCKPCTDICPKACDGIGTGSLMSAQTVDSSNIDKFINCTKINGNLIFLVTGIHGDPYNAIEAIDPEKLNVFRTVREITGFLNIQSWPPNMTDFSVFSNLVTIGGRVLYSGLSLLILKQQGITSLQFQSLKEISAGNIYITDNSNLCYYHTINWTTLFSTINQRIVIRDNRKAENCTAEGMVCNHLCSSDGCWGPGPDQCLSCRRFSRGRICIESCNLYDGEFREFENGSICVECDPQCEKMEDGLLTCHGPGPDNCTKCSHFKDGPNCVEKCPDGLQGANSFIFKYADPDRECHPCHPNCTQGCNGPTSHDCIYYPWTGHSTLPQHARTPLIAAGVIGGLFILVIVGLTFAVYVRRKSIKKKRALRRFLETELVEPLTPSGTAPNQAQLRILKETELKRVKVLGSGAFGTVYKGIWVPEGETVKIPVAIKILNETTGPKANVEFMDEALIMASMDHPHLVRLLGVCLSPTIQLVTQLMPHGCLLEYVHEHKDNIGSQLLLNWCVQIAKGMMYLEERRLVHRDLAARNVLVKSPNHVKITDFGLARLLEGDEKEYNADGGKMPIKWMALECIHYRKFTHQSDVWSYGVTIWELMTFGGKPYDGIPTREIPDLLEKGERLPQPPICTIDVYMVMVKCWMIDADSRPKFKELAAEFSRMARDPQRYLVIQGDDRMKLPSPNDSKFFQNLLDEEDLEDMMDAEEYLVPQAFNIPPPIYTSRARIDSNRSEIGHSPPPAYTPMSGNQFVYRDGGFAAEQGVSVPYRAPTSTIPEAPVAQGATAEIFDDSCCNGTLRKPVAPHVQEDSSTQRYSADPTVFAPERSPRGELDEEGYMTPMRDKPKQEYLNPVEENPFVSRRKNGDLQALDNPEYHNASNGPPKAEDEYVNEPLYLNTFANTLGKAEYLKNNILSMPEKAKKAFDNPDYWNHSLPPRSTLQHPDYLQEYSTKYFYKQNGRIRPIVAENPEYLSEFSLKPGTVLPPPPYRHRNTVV
Sequence of MAPK14 (human) (Q16539 whole entry, looked up): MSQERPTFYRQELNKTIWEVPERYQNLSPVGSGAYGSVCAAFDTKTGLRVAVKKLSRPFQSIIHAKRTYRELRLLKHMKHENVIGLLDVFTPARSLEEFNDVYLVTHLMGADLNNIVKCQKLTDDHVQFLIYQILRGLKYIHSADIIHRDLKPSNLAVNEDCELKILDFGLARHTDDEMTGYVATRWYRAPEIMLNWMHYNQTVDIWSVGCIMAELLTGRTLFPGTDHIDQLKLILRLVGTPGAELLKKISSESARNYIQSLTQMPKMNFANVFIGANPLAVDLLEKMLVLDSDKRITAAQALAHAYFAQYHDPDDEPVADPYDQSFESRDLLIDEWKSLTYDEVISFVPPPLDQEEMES
Sequence of PRKCH (human) (P24723 whole entry, looked up): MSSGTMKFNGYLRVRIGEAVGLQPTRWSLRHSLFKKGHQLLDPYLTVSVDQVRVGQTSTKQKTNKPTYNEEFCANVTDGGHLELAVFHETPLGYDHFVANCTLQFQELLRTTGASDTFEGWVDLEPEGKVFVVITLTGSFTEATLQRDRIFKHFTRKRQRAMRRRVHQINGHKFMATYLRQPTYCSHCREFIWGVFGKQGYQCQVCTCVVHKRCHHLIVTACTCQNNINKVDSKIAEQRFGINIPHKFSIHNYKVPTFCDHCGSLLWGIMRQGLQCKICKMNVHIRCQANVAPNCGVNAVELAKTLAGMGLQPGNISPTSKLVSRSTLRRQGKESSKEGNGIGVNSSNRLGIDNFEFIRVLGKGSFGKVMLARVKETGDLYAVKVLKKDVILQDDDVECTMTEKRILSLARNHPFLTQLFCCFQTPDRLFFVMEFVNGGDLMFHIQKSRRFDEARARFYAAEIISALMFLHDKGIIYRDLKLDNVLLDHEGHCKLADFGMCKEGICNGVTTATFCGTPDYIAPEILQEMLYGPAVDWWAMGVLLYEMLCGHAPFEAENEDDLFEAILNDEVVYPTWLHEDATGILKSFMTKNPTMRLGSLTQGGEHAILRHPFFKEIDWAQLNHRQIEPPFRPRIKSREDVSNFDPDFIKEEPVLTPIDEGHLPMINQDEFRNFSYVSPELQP
Sequence of STK3 (human) (Q13188 whole entry, looked up): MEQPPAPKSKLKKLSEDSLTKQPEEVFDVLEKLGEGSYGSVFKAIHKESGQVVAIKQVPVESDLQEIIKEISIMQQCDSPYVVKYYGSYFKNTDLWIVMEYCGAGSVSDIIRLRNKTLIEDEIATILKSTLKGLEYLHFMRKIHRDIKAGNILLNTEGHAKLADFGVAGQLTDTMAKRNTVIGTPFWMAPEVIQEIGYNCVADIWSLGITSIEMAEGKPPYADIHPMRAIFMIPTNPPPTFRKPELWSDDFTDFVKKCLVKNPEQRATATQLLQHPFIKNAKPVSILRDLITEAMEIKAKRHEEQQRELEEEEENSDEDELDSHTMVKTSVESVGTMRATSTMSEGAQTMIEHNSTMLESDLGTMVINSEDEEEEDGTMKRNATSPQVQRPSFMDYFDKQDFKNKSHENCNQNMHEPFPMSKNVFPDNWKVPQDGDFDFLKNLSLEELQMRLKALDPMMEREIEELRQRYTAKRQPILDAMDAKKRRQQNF
Sequence of EIF2AK2 (human) (P19525 whole entry, looked up): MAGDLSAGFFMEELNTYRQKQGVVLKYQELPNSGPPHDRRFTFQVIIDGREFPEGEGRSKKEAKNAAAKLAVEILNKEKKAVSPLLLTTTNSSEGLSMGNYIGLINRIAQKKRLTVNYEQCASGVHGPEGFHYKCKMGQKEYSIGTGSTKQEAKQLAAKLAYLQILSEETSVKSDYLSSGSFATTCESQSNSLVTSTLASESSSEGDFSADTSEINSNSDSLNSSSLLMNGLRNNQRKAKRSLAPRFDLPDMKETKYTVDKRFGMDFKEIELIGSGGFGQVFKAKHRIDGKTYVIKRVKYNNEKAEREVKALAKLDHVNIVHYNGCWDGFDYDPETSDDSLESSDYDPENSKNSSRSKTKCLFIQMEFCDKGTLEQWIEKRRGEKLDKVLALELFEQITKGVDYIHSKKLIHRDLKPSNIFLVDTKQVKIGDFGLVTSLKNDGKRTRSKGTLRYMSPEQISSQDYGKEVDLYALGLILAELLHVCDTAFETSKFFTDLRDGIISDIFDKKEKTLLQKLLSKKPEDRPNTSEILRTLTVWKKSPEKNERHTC
Sequence of KIT (human) (P10721 whole entry, looked up): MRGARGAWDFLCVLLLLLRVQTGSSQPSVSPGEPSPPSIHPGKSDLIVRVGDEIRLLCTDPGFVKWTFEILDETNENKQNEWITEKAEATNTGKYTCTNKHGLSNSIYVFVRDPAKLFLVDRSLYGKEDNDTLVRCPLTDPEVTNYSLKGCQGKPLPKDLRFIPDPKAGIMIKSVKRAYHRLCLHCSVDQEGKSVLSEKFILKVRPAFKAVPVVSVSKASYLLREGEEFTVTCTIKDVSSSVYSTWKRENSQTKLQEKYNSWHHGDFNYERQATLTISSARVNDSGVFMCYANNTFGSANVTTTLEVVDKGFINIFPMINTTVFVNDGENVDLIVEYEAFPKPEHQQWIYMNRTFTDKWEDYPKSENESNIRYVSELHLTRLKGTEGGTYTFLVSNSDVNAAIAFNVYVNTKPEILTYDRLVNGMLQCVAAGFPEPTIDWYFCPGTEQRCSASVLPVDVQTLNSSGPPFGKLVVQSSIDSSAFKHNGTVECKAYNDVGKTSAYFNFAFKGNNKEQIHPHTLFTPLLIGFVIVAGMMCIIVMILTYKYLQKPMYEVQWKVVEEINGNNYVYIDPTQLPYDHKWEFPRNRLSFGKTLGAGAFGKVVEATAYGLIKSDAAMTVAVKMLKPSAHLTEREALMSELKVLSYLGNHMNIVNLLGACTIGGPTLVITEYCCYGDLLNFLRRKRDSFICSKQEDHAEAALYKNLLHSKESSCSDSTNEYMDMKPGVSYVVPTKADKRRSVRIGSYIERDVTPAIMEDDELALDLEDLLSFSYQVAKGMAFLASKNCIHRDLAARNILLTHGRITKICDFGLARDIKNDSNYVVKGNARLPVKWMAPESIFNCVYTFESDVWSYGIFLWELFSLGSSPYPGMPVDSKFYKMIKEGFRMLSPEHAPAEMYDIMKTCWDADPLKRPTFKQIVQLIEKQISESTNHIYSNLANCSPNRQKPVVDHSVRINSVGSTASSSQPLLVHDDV
Sequence of PRKG1 (human) (Q13976 whole entry, looked up): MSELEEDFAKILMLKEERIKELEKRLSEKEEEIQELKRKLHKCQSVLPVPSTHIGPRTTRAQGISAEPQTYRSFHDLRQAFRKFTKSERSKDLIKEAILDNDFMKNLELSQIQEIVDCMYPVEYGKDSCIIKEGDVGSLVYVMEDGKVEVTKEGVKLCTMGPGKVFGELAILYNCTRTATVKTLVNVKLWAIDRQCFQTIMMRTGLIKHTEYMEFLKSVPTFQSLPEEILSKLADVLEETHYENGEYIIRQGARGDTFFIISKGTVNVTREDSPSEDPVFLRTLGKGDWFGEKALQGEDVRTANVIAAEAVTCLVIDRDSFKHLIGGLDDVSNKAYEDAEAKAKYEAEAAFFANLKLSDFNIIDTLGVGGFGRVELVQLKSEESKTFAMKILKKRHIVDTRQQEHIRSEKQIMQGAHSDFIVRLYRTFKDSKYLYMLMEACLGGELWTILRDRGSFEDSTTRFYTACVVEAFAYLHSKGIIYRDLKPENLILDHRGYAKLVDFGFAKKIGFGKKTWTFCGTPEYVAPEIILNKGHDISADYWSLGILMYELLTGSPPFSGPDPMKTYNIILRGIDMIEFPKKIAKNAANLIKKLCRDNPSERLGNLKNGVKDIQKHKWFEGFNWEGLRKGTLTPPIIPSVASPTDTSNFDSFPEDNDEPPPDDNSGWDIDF

Row | SMILES | kinase still bound, per cent of control (AKT1 (human)) | kinase still bound, per cent of control (CAMK1D (human)) | kinase still bound, per cent of control (CAMK2A (human)) | kinase still bound, per cent of control (DDR2 (human)) | kinase still bound, per cent of control [1] | kinase still bound, per cent of control (EIF2AK2 (human)) | kinase still bound, per cent of control (EPHA1 (human)) | kinase still bound, per cent of control (EPHA8 (human)) | kinase still bound, per cent of control (ERBB4 (human)) | kinase still bound, per cent of control (FER (human)) | kinase still bound, per cent of control (FRK (human)) | kinase still bound, per cent of control (GAK (human)) | kinase still bound, per cent of control (ITK (human)) | kinase still bound, per cent of control (KIT (human)) | kinase still bound, per cent of control (LATS1 (human)) | kinase still bound, per cent of control (LATS2 (human)) | kinase still bound, per cent of control (MAP2K6 (human)) | kinase still bound, per cent of control (MAPK11 (human)) | kinase still bound, per cent of control (MAPK14 (human)) | kinase still bound, per cent of control (MERTK (human)) | further results
1 | COc1cc(C)c(Sc2cnc(NC(=O)c3ccc(CNC(C)C(C)C)cc3)s2)cc1C(=O)N1CCN(C(C)=O)CC1 (stereo not drawn) | 100% | 100% | 100% | 100% | 100% | 100% | 100% | 100% | 100% | 15% | 100% | 100% | 0.25% | 100% | 100% | 100% | 100% | 100% | 100% | 3.2% | kinase still bound, per cent of control (MAPK13 (human)): 100%; kinase still bound, per cent of control (MUSK (human)): 0.2%; kinase still bound, per cent of control (MYLK (human)): 100%; kinase still bound, per cent of control (NEK1 (human)): 100%; kinase still bound, per cent of control (NEK6 (human)): 34%; kinase still bound, per cent of control (PIP5K1A (human)): 100%; kinase still bound, per cent of control (PKN2 (human)): 100%; kinase still bound, per cent of control (PRKCH (human)): 100%; kinase still bound, per cent of control (PRKG1 (human)): 100%; kinase still bound, per cent of control (STK16 (human)): 100%; kinase still bound, per cent of control (STK3 (human)): 100%; kinase still bound, per cent of control (TGFBR1 (human)): 100%; kinase still bound, per cent of control (TIE1 (human)): 11%; kinase still bound, per cent of control (TNK2 (human)): 100%; kinase still bound, per cent of control (ULK1 (human)): 25%
2 | COc1cc(N2CCC(C(N)=O)CC2)ccc1Nc1nc(N)c(Cl)c(Nc2ccccc2S(=O)(=O)C(C)C)n1 | 100% | 100% | 32% | 100% | 0.15% | 100% | 15% | 100% | 0.55% | 0.6% | 6.6% | 2.5% | 100% | 100% | 100% | 100% | 100% | 100% | 100% | 32% | kinase still bound, per cent of control (MAPK13 (human)): 100%; kinase still bound, per cent of control (MUSK (human)): 100%; kinase still bound, per cent of control (MYLK (human)): 5%; kinase still bound, per cent of control (NEK1 (human)): 100%; kinase still bound, per cent of control (NEK6 (human)): 100%; kinase still bound, per cent of control (PIP5K1A (human)): 100%; kinase still bound, per cent of control (PKN2 (human)): 100%; kinase still bound, per cent of control (PRKCH (human)): 100%; kinase still bound, per cent of control (PRKG1 (human)): 100%; kinase still bound, per cent of control (STK16 (human)): 100%; kinase still bound, per cent of control (STK3 (human)): 100%; kinase still bound, per cent of control (TGFBR1 (human)): 100%; kinase still bound, per cent of control (TIE1 (human)): 29%; kinase still bound, per cent of control (TNK2 (human)): 0.2%; kinase still bound, per cent of control (ULK1 (human)): 100%
3 | COc1ccc(N(C(=O)Oc2cc(C(=O)Nc3cccc(C(F)(F)F)c3)ccc2C)c2ccnc(Nc3ccc(N4CCN(C)CC4)cc3)n2)c(OC)c1 | 100% | 100% | 100% | 100% | 0.6% | 100% | 0.75% | 0% | 9.8% | 4.4% | 0.4% | 26% | 100% | 0.8% | 100% | 100% | 100% | 1.9% | 14% | 1.2% | kinase still bound, per cent of control (MUSK (human)): 20%; kinase still bound, per cent of control (MYLK (human)): 100%; kinase still bound, per cent of control (NEK1 (human)): 100%; kinase still bound, per cent of control (NEK6 (human)): 100%; kinase still bound, per cent of control (PIP5K1A (human)): 100%; kinase still bound, per cent of control (PKN2 (human)): 100%; kinase still bound, per cent of control (PRKCH (human)): 100%; kinase still bound, per cent of control (PRKG1 (human)): 100%; kinase still bound, per cent of control (STK16 (human)): 100%; kinase still bound, per cent of control (STK3 (human)): 100%; kinase still bound, per cent of control (TGFBR1 (human)): 100%; kinase still bound, per cent of control (TIE1 (human)): 3.8%; kinase still bound, per cent of control (TNK2 (human)): 4%

From the kinase profiling compilation of Christmann-Franck et al. (2016)
